Patent US20100280061A1, “NOVEL ANALGESIC THAT BINDS FILAMIN A” (priority 2009, published 2010)

Tests used:
mu opiate receptor (MOR) = molecular target: T1, mu opiate receptor (MOR) (Rattus norvegicus, UniProt P33535); assay: [35S]GTPγS binding assay using striatal membranes (MOR agonist activity); format: biochemical; set-up: MOR agonist activity, [35S]GTPγS binding to Gαo, 0.1 μM / MOR agonist activity, [35S]GTPγS binding to Gαo, 1 μM / MOR agonist activity, [35S]GTPγS binding to Gαo, 1 μM + BFNA: reference not given here; conditions: for MOR agonist activity, [35S]GTPγS binding to Gαo, 0.1 μM: 0.1 μM compound; for MOR agonist activity, [35S]GTPγS binding to Gαo, 0.1 μM / MOR agonist activity, [35S]GTPγS binding to Gαo, 1 μM: striatal membranes; for MOR agonist activity, [35S]GTPγS binding to Gαo, 1 μM + BFNA: 1 μM compound + 1 μM β-funaltrexamine; for MOR agonist activity, [35S]GTPγS binding to Gαo, 1 μM: 1 μM compound
T1 construct: from tissue; host or cells: striatal tissue (membrane preparation)
Description: To assess the mu opiate receptor (MOR) agonist activity of positive compounds from the FLNA screening, compounds were tested in a [^35S]GTPγS binding assay using striatal membranes. Our previous study has shown that in striatal membranes, activation of MOR leads to an increase in [^35S]GTPγS binding to Gαo (Wang et al., 2005 Neuroscience 135:247-261).
Striatal tissue was homogenized in 10 volumes of ice cold 25 mM HEPES buffer, pH 7.4, which contained 1 mM EGTA, 100 mM sucrose, 50 μg/ml leupeptin, 0.04 mM PMSF, 2 μg/ml soybean trypsin inhibitor and 0.2% 2-mercaptoethanol. The homogenates were centrifuged at 800×g for 5 minutes and the supernatants were centrifuged at 49,000×g for 20 minutes. The resulting pellets were suspended in 10 volume of reaction buffer, which contained 25 mM HEPES, pH 7.5, 100 mM NaCl, 50 μg/ml leupeptin, 2 μg/ml soybean trypsin inhibitor, 0.04 mM PMSF and 0.02% […].
The resultant striatal membrane preparation (200 μg) was admixed and maintained (incubated) at 30° C. for 5 minutes in reaction buffer as above that additionally contained 1 mM MgCl2 and 0.5 nM [^35S]GTPγS (0.1 μCi/assay, PerkinElmer Life and Analytical Sciences) in a total volume of 250 μl and continued for 5 minutes in the absence or presence of 0.1-10 μM of an assayed compound of interest. The reaction was terminated by dilution with 750 μl of ice-cold reaction buffer that contained 20 mM MgCl2 and 1 mM EGTA and immediate centrifugation at 16,000×g for 5 minutes.
The resulting pellet was solubilized by sonicating for 10 seconds in 0.5 ml of immunoprecipitation buffer containing 0.5% digitonin, 0.2% sodium cholate and 0.5% NP-40. Normal rabbit serum (1 μl) was added to 1 ml of lysate and incubated at 25° C. for 30 minutes. Nonspecific immune complexes were removed by incubation with 25 μl of protein A/G-conjugated agarose beads at 25° C. for 30 minutes followed by centrifugation at 5,000×g at 4° C. for 5 minutes. The supernatant was divided and separately incubated at 25° C. for 30 minutes with antibodies raised against Gαo proteins (1:1,000 dilutions).
The immunocomplexes so formed were collected by incubation at 25° C. for 30 minutes with 40 μl of agarose-conjugated protein A/G beads and centrifugation at 5,000×g at 4° C. for 5 minutes. The pellet was washed and suspended in buffer containing 50 mM Tris-HCl, pH 8.0, and 1% NP-40. The radioactivity in the suspension was determined by liquid scintillation spectrometry. […] DAMGO (H-Tyr-D-Ala-Gly-N-MePhe-Gly-OH; 1 or 10 μM) was used as a positive control.

[1] = molecular target: Bn-VAKGL pentapeptide of filamin A (FLNA) (Homo sapiens, UniProt P21333); assay: FITC-NLX-based FLNA screening assay (FLNA peptide binding assay); conditions: for Percent inhibition of FITC-NLX binding, 0.01 μM: 0.01 μM compound; for Percent inhibition of FITC-NLX binding, 0.01 μM / Percent inhibition of FITC-NLX binding, 0.1 μM / Percent inhibition of FITC-NLX binding, 1 μM: 10 nM FITC-NLX; for Percent inhibition of FITC-NLX binding, 0.1 μM: 0.1 μM compound; for Percent inhibition of FITC-NLX binding, 1 μM: 1 μM compound
Description: The final assay volume is 100 μl.
Compounds are tested in triplicate or quadruplicate.

T1 sequence (P33535 whole entry): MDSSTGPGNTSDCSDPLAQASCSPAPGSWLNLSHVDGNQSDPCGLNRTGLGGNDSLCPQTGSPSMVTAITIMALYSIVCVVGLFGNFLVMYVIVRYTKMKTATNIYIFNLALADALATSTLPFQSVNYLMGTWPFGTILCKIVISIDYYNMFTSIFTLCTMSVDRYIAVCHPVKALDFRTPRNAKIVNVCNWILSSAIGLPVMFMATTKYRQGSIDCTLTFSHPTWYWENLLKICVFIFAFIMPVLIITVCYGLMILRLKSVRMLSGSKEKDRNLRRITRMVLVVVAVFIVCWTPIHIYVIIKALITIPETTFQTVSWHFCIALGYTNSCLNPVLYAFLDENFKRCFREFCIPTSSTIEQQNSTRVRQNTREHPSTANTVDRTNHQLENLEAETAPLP

Row | Compound | MOR agonist activity, [35S]GTPγS binding to Gαo, 0.1 μM (mu opiate receptor (MOR)) [%] | MOR agonist activity, [35S]GTPγS binding to Gαo, 1 μM + BFNA (mu opiate receptor (MOR)) [%] | MOR agonist activity, [35S]GTPγS binding to Gαo, 1 μM (mu opiate receptor (MOR)) [%] | Percent inhibition of FITC-NLX binding, 0.01 μM [1] [%] | Percent inhibition of FITC-NLX binding, 0.1 μM [1] [%] | Percent inhibition of FITC-NLX binding, 1 μM [1] [%] | inhibition at 0.01 µM ([1]; read-out: Percent inhibition of FITC-NLX binding, 0.01 μM) [%] | inhibition at 0.1 µM ([1]; read-out: Percent inhibition of FITC-NLX binding, 0.1 μM) [%] | inhibition at 1 µM ([1]; read-out: Percent inhibition of FITC-NLX binding, 1 μM) [%] | % DAMGO + BFNA (mu opiate receptor (MOR); 1 μM + BFNA, relative to DAMGO + BFNA) [%]
1 | COc1c2c(cc3c1C(CC(=O)c1ccc(C#N)cc1)[N+](C)(C)CC3)OCO2 (stereo not shown) [B0001] | 128.2 | 28.0 | 202.3 |  |  |  |  |  |  | 
2 | COc1c2c(cc3c1C(CC(=O)c1ccc(O)c(C)c1)[N+](C)(C)CC3)OCO2 (stereo not shown) [B0002] | 165.7 | 101.4 | 219.0 | 40.2 | 46.4 | 55.0 |  |  |  | 
3 | COc1c2c(cc3c1C(CC(=O)c1ccc(F)c(F)c1)[N+](C)(C)CC3)OCO2 (stereo not shown) [B0003] | 103.0 | 18.6 | 131.1 |  |  |  | 45.4 | 52.9 | 63.5 | 
4 | COc1c2c(cc3c1C(CC(=O)c1ccc(N4CCOCC4)cc1)[N+](C)(C)CC3)OCO2 (stereo not shown) [B0004] | 170.3 | 72.0 | 231.7 |  |  |  |  |  |  | 110.0
5 | COc1c2c(cc3c1C(CC(=O)c1ccncc1)[N+](C)(C)CC3)OCO2 (stereo not shown) [B0005] | 89.2 | 45.1 | 110.4 | 31.8 | 34.8 | 41.7 |  |  |  | 
6 | COc1c2c(cc3c1C(CC(=O)c1cccc(C(F)(F)F)c1)[N+](C)(C)CC3)OCO2 (stereo not shown) [B0006] | 77.0 | 18.6 | 131.3 |  |  |  |  |  |  | 
7 | COc1cc(F)ccc1C(=O)CC1c2c(cc3c(c2OC)OCO3)CC[N+]1(C)C (stereo not shown) [B0007] | 168.3 | 64.5 | 223.3 |  |  |  |  |  |  | 
8 | COc1cc(CC(=O)CC2c3c(cc4c(c3OC)OCO4)CC[N+]2(C)C)cc(OC)c1OC (stereo not shown) [B0008] | 148.3 | 46.0 | 264.1 | 35.5 | 40.3 | 52.8 |  |  |  | 
9 | COc1c2c(cc3c1C(CC(=O)Cc1ccc(Br)cc1)[N+](C)(C)CC3)OCO2 (stereo not shown) [B0011] | 158.6 | 78.0 | 212.6 | 40.9 | 50.3 | 55.8 |  |  |  | 
10 | COc1c2c(cc3c1C(CC(=O)Cc1ccc(C#N)cc1)[N+](C)(C)CC3)OCO2 (stereo not shown) [B0012] | 167.4 | 145.1 | 212.0 | 39.4 | 46.9 | 51.7 |  |  |  | 
11 | COc1ccc(CCC(=O)CC2c3c(cc4c(c3OC)OCO4)CC[N+]2(C)C)cc1 (stereo not shown) [B0016] | 167.7 | 72.2 | 213.6 |  |  |  |  |  |  | 
12 | COc1c2c(cc3c1C(CC(=O)CCc1ccc(Cl)cc1)[N+](C)(C)CC3)OCO2 (stereo not shown) [B0017] | 99.6 | 49.6 | 122.0 | 28.3 | 36.6 | 44.6 |  |  |  | 
13 | COc1c2c(cc3c1C(CC(=O)CCc1ccc(F)cc1)[N+](C)(C)CC3)OCO2 (stereo not shown) [B0018] | 118.8 | 45.6 | 143.0 | 37.2 | 43.7 | 47.6 |  |  |  | 
14 | COc1c2c(cc3c1C(CC(=O)/C=C/c1ccc(Cl)cc1)[N+](C)(C)CC3)OCO2 (stereo not shown) [B0019] | 101.0 | 81.4 | 256.5 | 34.3 | 41.0 | 49.0 |  |  |  | 
15 | CCOc1ccc(C(=O)CC2c3c(cc4c(c3OC)OCO4)CC[N+]2(C)C)cc1F (stereo not shown) [B0020] | 51.6 | 24.9 | 181.6 | 38.1 | 45.5 | 50.6 |  |  |  | 
16 | COc1ccc(CCC(=O)CC2c3c(cc4c(c3OC)OCO4)CCN2C)cc1 (stereo not shown) [B0047] | 187.8 | 68.4 | 235.6 |  |  |  |  |  |  | 
17 | COc1c2c(cc3c1C(CC(=O)Cc1ccccc1C)N(C)CC3)OCO2 (stereo not shown) [B0053] | 160.2 | 134.3 | 299.8 |  |  |  |  |  |  | 
18 | COc1c2c(cc3c1C(CC(=O)Cc1ccccc1F)[N+](C)(C)CC3)OCO2.[I-] (stereo not shown) [B0055] | 162.1 | 117.5 | 338.5 |  |  |  |  |  |  | 
19 | COc1ccc(CCCCC2c3c(cc4c(c3OC)OCO4)CC[N+]2(C)C)cc1 (stereo not shown) [B0056] | 174.7 | 41.8 | 288.8 |  |  |  |  |  |  | 
